Read-outs that look alike come from different tables or passages of the source. Values belong to the molecule of their own block, whether it stands above or below them.
What was measured:
ZIKV NS5 RdRp [1] = molecular target: T1, ZIKV NS5 RdRp (Zika virus, UniProt A0A024B7W1); test: Fluorescence-based alkaline phosphatase-coupled polymerase assay, RdRp enzymatic inhibition; type: biochemical; conditions: compounds incubated with RdRp for 30 min; WT-RdRp; read-out: IC50 to inhibit RdRp activity
Protocol: The activity of RdRp was measured by a fluorescence-based alkaline phosphatase-coupled polymerase assay established previously in our lab. Briefly, RdRp catalyzed the transfer of adenosine 5′-monophosphate from γ-(BBT)-ATP to the RNA chain, generating the byproduct BBTppi. Subsequently, BBTppi was hydrolyzed by alkaline phosphatase to fluorescent BBT (ex/em 430/560 nm).
The plasmid pET30a-RdRp, constructed in our laboratory, was transformed into E. coli Transetta (DE3) for RdRp expression and purified. The bacteria were grown in ZYM-5052 culture medium. RdRp with the His tag was loaded on a Ni^2+ HisTrap chelating column and then eluted in a buffer containing imidazole in the ÄKTA system. The purified proteins were verified by SDS-PAGE and Western blotting. RdRp activity was analyzed using a fluorescence-based alkaline phosphatase-coupled polymerase assay. The inhibitory effect of the compounds against RdRp was evaluated using the protocol developed in our laboratory.

Huh-7 cells [2] = test: WST-8 cell viability (cytotoxicity) assay; conditions: Huh-7 cells
Protocol: (§1) The WST-8 assay was used to evaluate the cytotoxicity of the compounds. Huh-7 cells (1 × 10^4 cells/well) were seeded in a 96-well plate and different concentrations of compounds were added the next day. After a 24 h incubation, the supernatant was discarded and WST-8 reagent (1:10 diluted by DMEM) was added. The cell viability was assessed using a Microplate Reader (ELx808, Biotek, North Chesterfield, VA, USA) at 450 nm.

in vitro = conditions: human
Protocol: as §1

ZIKV NS5 RdRp [3] = molecular target: T1, ZIKV NS5 RdRp; test: SPR binding to immobilized RdRp; conditions: CM5 chip, 3.125–50 μM
Protocol: Thus, SPR assays were carried out. RdRp protein was immobilized on a CM5 sensor chip through amine coupling.
The SPR was carried out using BIAcore T200 (GE Healthcare, Uppsala, Sweden) at 25 °C. RdRp was diluted by 10 mM sodium acetate (pH 4.5) and then immobilized on a CM5 sensor chip using an NHS/EDC amine-coupling kit in 1× PBS-P running buffer. Different concentrations (3.125–50 μM) of compounds flowed through the sensor chip surface and the RUs was detected. The equilibrium dissociation constant (KD) was fitted using the BIAcore Evaluation Software.

dengue virus = conditions: by targeting OSBP; read-out: EC50 dengue virus replication; cited from earlier work
ZIKV (SMGC-1) = test: Anti-ZIKV activity by FACS of ZIKV E protein-positive cells; type: cell-based; conditions: Zika virus, read-out: EC50 anti-ZIKV activity (reduction of ZIKV E protein-positive cells)
Protocol: Huh-7 cells were infected with ZIKV (SMGC-1) and incubated with different concentrations of compounds. After 48 h, the cells were fixed and permeabilized, followed by staining with the FITC-anti-ZIKV E protein antibody. When detected by FACS, the FITC intensity in the given cell population reflected the ZIKV E protein-positive cells, indicting the cells infected with ZIKV.
Huh-7 cells were seeded into 24-well plates and infected with ZIKV (SMGC-1) at a multiplicity of infection (MOI) of 0.2. […] Chloroquine was used as a positive control. Cells were fixed and permeabilized for 20 min using a Fixation/Permeabilization Solution Kit. After washing, the cells were incubated with FITC-anti-ZIKV E protein antibody for 30 min. Then, ZIKV E protein-positive cells were detected in a FACS Analyzer and analyzed by FlowJo (TreeStar, Ashland, OR, USA). The EC50s of the compounds were calculated as the reduction ratio of ZIKV E protein-positive cells over the concentrations of the compounds.

[4] = tested on: ZIKV sub-genomic replicon RNA; conditions: Hela cells, single concentration of 10 μM; cited from earlier work
Huh-7 cells [5] = tested on: Huh-7 cells; set-up: method as in PMID 19760134; conditions: ≤ 10 μM; cited from earlier work

T1 sequence (A0A024B7W1 2786-3423): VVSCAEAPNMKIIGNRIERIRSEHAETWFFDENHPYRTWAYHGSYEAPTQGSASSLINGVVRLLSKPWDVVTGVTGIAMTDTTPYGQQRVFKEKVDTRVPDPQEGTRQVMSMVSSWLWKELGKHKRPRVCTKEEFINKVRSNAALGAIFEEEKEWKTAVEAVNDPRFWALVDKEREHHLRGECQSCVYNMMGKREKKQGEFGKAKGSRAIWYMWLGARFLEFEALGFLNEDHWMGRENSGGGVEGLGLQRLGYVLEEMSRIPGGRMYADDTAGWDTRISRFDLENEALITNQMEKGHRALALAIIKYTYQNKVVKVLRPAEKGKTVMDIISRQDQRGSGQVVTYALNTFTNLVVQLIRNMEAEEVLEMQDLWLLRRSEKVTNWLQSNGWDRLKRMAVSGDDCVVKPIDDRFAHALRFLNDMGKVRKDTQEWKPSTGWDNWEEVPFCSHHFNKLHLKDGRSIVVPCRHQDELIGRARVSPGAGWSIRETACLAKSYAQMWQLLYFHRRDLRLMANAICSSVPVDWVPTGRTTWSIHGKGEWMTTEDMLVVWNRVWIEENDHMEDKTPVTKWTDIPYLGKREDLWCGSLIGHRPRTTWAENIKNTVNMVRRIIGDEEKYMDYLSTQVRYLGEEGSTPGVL

Compound: CCCCCCOC(=O)NC(=N)c1ccc(NCc2nc3cc(C(=O)N(CCC(=O)OCC)c4ccccn4)ccc3n2C)cc1 [DAB, Dabigatran etexilate]
IC50 (ZIKV NS5 RdRp [1]): 11.3 µM

Compound: Cc1cc2c(C(C)C)c(O)c(O)c(C=O)c2c(O)c1-c1c(C)cc2c(C(C)C)c(O)c(O)c(C=O)c2c1O [GOS, Gossypol (acetic acid)]
Cytotoxicity (in words) at 5 μM (Huh-7 cells [2]; WST-8, concentration of 5 μM): obvious cell toxicity
CC50 at 24 h (in vitro): 7.79 µM

Compound: CCC(C)n1ncn(-c2ccc(N3CCN(c4ccc(OCC5COC(Cn6cncn6)(c6ccc(Cl)cc6Cl)O5)cc4)CC3)cc2)c1=O (stereo not shown) [ITR, Itraconazole]
CC50 at 24 h (in vitro): > 100 µM
Binding to RdRp by SPR (in words) (ZIKV NS5 RdRp [3]): almost no binding signals
IC50 (ZIKV NS5 RdRp [1]): 1.82 µM

Compound: CC[C@@H]([C@H](C)O)n1ncn(-c2ccc(N3CCN(c4ccc(OC[C@@H]5CO[C@@](Cn6cncn6)(c6ccc(F)cc6F)C5)cc4)CC3)cc2)c1=O [POS, Posaconazole]
EC50 (dengue virus): 4.1 µM
Cytotoxicity (in words) at concentrations used in the anti-ZIKV assay (Huh-7 cells [2]; WST-8, 24 h, ≤ 6.4 μM): low
CC50 at 24 h (in vitro; Huh-7 cells): 101 µM
EC50 (ZIKV (SMGC-1); Huh-7 cells, ZIKV (SMGC-1) MOI 0.2, 48 h, FACS): 0.59 µM
Effect on replication of ZIKV sub-genomic replicon RNA (in words) [4]: inhibit the replication

EC50 (ZIKV (SMGC-1); Huh-7, 48 h): 2.8 µM
Compound: CCN(CC)CCCC(C)Nc1ccnc2cc(Cl)ccc12 (stereo not shown) [chloroquine, Chloroquine]
Cytotoxicity to Huh-7 cells (in words) (Huh-7 cells [5]): no significant cytotoxicity

From paper PMC9915956, “Identification of Potent Zika Virus NS5 RNA-Dependent RNA Polymerase Inhibitors Combining Virtual Screening and Biological Assays” (International Journal of Molecular Sciences, 2023)
